45 compounds from ChEMBL document CHEMBL1137961, “Benzimidazolone p38 inhibitors” (Bioorg Med Chem Lett, 2004) can be followed below.

This experiment deals with Mitogen-activated protein kinase 14 (Homo sapiens, UniProt Q16539). The experiment in a line: Inhibitory activity against mitogen activated protein (MAP) kinase p38 alpha.
Chain of Mitogen-activated protein kinase 14 (Q16539 whole entry): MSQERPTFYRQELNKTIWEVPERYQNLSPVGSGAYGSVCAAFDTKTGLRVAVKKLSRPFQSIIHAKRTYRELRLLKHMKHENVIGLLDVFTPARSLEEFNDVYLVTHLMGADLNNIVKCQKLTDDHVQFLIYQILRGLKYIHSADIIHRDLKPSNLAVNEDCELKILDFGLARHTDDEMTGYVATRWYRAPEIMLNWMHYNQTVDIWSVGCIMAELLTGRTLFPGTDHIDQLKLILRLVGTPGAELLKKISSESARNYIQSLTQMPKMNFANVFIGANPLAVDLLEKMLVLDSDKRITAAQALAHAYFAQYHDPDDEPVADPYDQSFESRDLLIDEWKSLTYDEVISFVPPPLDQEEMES

The IC50 is the point on the concentration scale where inhibition reaches its midpoint. Read a low IC50 as inhibition by little substance. In the case of `Cn1c(=O)n(C)c2cc(-c3[nH]c(-c4ccc([S+](C)[O-])cc4)nc3-c3ccc(F)cc3)ccc21` (stereo not given), the IC50 is 4000 nM.

In the case of `CCn1c(=O)n(CC)c2cc(-c3[nH]cnc3-c3cccc(C)c3)ccc21`, the IC50 turned out to be 50 nM.

On to `CC(C)c1cccc(-c2[nH]c(-c3cccs3)nc2-c2ccc3c(c2)n(C)c(=O)n3C)c1`, for which the IC50 is more than 32000 nM.

Compound `CCc1cccc(-c2[nH]c(-c3cccs3)nc2-c2ccc3c(c2)n(C)c(=O)n3C)c1` gave an IC50 of 500 nM.

In the case of `Cc1cccc(-c2nc(C3CCNCC3)[nH]c2-c2ccc3c(c2)n(C)c(=O)n3C)c1`, the IC50 worked out at 70 nM.

Turning to `Cc1cccc(-n2cncc2-c2ccc3c(c2)n(C)c(=O)n3C)c1`, the IC50 worked out at 14400 nM.

Consider `Cc1ccccc1-c1nc(-c2cccs2)[nH]c1-c1ccc2c(c1)n(C)c(=O)n2C`, for which the IC50 was determined as 6200 nM.

`CCn1c(=O)n(CC)c2cc(-c3c[nH]nc3-c3cccc(C(F)(F)F)c3)ccc21` yielded an IC50 of 60 nM.

As for `CCn1c(=O)n(CC)c2cc(-c3c(-c4cccc(C)c4)nc(C4CCNCC4)n3C)ccc21`, half-maximal inhibition (IC50) required 1250 nM.

Regarding `Cc1cccc(-c2[nH]c3nc(N)ccc3c2-c2ccc3c(c2)n(C)c(=O)n3C)c1`, the IC50 stood at 260 nM.

Take `Cn1c(=O)n(C)c2cc(-c3[nH]c(-c4cccs4)nc3-c3ccc(F)cc3)ccc21`: the IC50 was 270 nM.

`Cn1c(=O)n(C)c2cc(-c3[nH]c(-c4cccs4)nc3-c3cccc(Cl)c3)ccc21` registered an IC50 of 380 nM.

`CCn1c(=O)n(CC)c2cc(-c3c[nH]cn3)ccc21` returned an IC50 of more than 1000 nM.

Turning to `Cn1c(=O)n(C)c2cc(-c3[nH]c(-c4cccs4)nc3-c3cccc(F)c3)ccc21`, 390 nM corresponded to half-maximal inhibition (IC50). This lies in the sub-micromolar range.

For `CCn1c(=O)n(CC)c2cc(-c3ccnn3-c3cccc(C)c3)ccc21`, it took 690 nM to reach half-maximal inhibition (IC50).

For `CCn1c(=O)n(CC)c2cc(-c3n[nH]cc3-c3cccc(C)c3)ccc21`, the IC50 came out at 730 nM. This IC50 and that of the compound before are within 1.5-fold of each other.

Consider `CCn1c(=O)n(CC)c2cc(-n3nnnc3-c3ccc(F)c(C)c3)ccc21`, for which the IC50 is more than 1000 nM.

Turning to `CCn1c(=O)n(CC)c2cc(-c3c(-c4ccc(F)cc4)ncn3C3CCNCC3)ccc21`, the midpoint of inhibition, the IC50, lay at 90 nM.

`CCn1c(=O)n(CC)c2cc(-c3c[nH]nc3-c3ccc(F)c(C)c3)ccc21` displayed an IC50 of 30 nM.

Regarding `Cn1c(=O)n(C)c2cc(-c3[nH]c(-c4cccs4)nc3-c3ccccc3Cl)ccc21`, 540 nM corresponded to half-maximal inhibition (IC50).

The compound `Cn1c(=O)n(C)c2cc(-c3c[nH]nc3-c3ccccc3)ccc21` gave an IC50 of 200 nM.

Compound `Cn1c(=O)n(C)c2cc(-c3[nH]cnc3-c3ccc(F)cc3)ccc21` gave an IC50 of 140 nM.

With `CCn1c(=O)n(CC)c2cc(-c3[nH]cnc3-c3ccc(F)cc3)ccc21`, the IC50 turned out to be 100 nM. The IC50 values of the last two compounds are within 1.5-fold of each other.

As to `CCn1c(=O)n(CC)c2cc(-c3ocnc3-c3cccc(C)c3)ccc21`, half-maximal inhibition (IC50) required 800 nM.

`Cc1cccc(-c2nncn2-c2ccc3c(c2)n(C)c(=O)n3C)c1`: the IC50 amounted to 12500 nM.

As to `Cc1cccc(-c2nc(-c3cccnc3)[nH]c2-c2ccc3c(c2)n(C)c(=O)n3C)c1`, the IC50 is 200 nM. Compared with the last compound, the IC50 is about 62-fold lower.

The compound `CCn1c(=O)n(CC)c2cc(-c3[nH]cnc3-c3ccccc3)ccc21` displayed an IC50 of 140 nM.

`Cn1c(=O)n(C)c2cc(-c3[nH]c(-c4cccs4)nc3-c3cccc(C(F)(F)F)c3)ccc21` had an IC50 of 1500 nM. This IC50 lies about 11-fold higher than the previous one.

In the case of `CCn1c(=O)n(CC)c2cc(-c3[nH]c(-c4cccnc4)nc3-c3cccc(C)c3)ccc21`, the IC50 came out at 70 nM.

The compound `CCn1c(=O)n(CC)c2cc(-c3c[nH]nc3-c3cccc(C)c3)ccc21` came in with an IC50 of 9 nM.

Regarding `Cn1c(=O)n(C)c2cc(-c3[nH]c(-c4cccs4)nc3-c3ccc(Cl)cc3)ccc21`, the IC50 is 680 nM.

`Cn1c(=O)n(C)c2cc(-c3n[nH]cc3-c3ccccc3)ccc21` registered an IC50 of 2500 nM.

In the case of `Cc1cccc(-c2nc[nH]c2-c2ccc3c(c2)n(C)c(=O)n3C)c1`, the IC50 worked out at 100 nM.

With `CCn1c(=O)n(CC)c2cc(-c3nnnn3-c3ccc(F)c(C)c3)ccc21`, the IC50 is more than 1000 nM.

Regarding `CCn1c(=O)n(CC)c2cc(-c3cc(-c4cccnc4)[nH]c3-c3cccc(C)c3)ccc21`, the IC50 is more than 1000 nM.

`Cc1cccc(-c2nc(-c3cccs3)[nH]c2-c2ccc3c(c2)n(C)c(=O)n3C)c1` came in with an IC50 of 140 nM.

Consider `Cn1c(=O)n(C)c2cc(-c3[nH]c(-c4cccs4)nc3-c3ccccc3)ccc21`, for which the IC50 was 260 nM.

As for `CCn1c(=O)n(CC)c2cc(-c3cccnc3-c3cccc(C)c3)ccc21`, the IC50 was more than 1000 nM.

In turn, `Cc1ccc(-c2nc(-c3cccs3)[nH]c2-c2ccc3c(c2)n(C)c(=O)n3C)cc1` gave an IC50 of 1800 nM.

Compound `CCn1c(=O)n(CC)c2cc(-c3n[nH]cc3-c3ccccc3)ccc21` registered an IC50 of 680 nM.

In turn, `Cn1c(=O)n(C)c2cc(-c3[nH]c(-c4cccs4)nc3-c3cccc(OC(F)(F)F)c3)ccc21` displayed an IC50 of 15800 nM.

Compound `Cn1c(=O)n(C)c2cc(-c3[nH]c(-c4cccs4)nc3-c3ccccc3F)ccc21` showed an IC50 of 370 nM.

Take `Cn1c(=O)n(C)c2cc(-c3[nH]cnc3-c3ccccc3)ccc21`: the IC50 turned out to be 290 nM.

In the case of `CCn1c(=O)n(CC)c2cc(-c3c[nH]nc3-c3ccccc3)ccc21`, half-maximal inhibition (IC50) required 200 nM.

`CCc1ccc(-c2[nH]c(-c3cccs3)nc2-c2ccc3c(c2)n(C)c(=O)n3C)cc1`: 8000 nM corresponded to half-maximal inhibition (IC50).
